Data reported in patent publication US9139502B2, “Use of an urushiol compound in preparation of pharmaceutical compositions for inhibiting Smad3 phosphorylation” (Southern Hospital, Southern Medical University, priority 2013, dated 2015).

Key:
[1] = target: interaction of Smad2 with TβRI (Rattus norvegicus, UniProt O70436); assay: Immunoprecipitation of Smad2 with TβRI in UUO kidneys; type: in vivo; details: GQ-5 40 mg/kg daily i.p. right after UUO, sacrificed day 14
Method: (§1) Male Sprague-Dawley rats with body weight 200 to 250 g were randomized into 3 groups (n=6 in each group): (1) sham operated rats; (2) UUO rats; (3) UUO+GQ-5 rats.
(§2) GQ-5 was dissolved in 5% propylene glycol.
(§3) (3) UUO+GQ-5 rats: daily intraperitoneal injection of GQ-5 (40 mg/kg body weight) right after UUO;
UUO was performed using an established protocol as described. GQ-5 was dissolved in 5% propylene glycol. Rats were administrated with GQ-5 as described before. All the rats were sacrificed 14 days after UUO. Immunoprecipitation analyses were performed to examine the interaction among TβRI, TβRII, Smad3 and Smad2.

Smad7 [2] = assay: Western blot of Smad7 expression in vitro; type: cell-based, rat; details: NRK52E and NRK49F cells, GQ-5 2.5 nM pre-treated 1 h, TGF-β1 10 ng/ml 1 h
Method: (§4) NRK52E and NRK49F cells were cultured in DMEM-Ham's medium (Gibco, Life Techologies, NY, USA) supplemented with 10% fetal bovine serum (Gibco, Life Techologies, NY, USA). The cells reached at approximately 50% confluence were used for in vitro experiments. Cells were serum-starved for 12 h, and randomized into 4 groups: (1) Controls; (2) GQ-5 only; (3) TGF-β1 only; (4) TGF-β1+GQ-5
(§5) (2) GQ-5 only: pre-treated with GQ-5 (2.5 μM) for 1 h, followed with DMEM for 1 h
(§6) (3) TGF-β1 only: pre-treated with DMSO (0.1%) for 1 h, followed with TGF-β1 (10 ng/ml) for 1 h
(§7) (4) TGF-β1+GQ-5: pre-treated with GQ-5 (2.5 nM) for 1 h, followed with TGF-β1 (10 ng/ml) for 1 h
(§8) GQ-5 was dissolved in DMSO. Cells were treated as described. cell lysates were immunoblotted with antibodies against Smad4, Smad7, phospho-p38, p38, phospho-PI3K, PI3K, phosphor-ERK, and ERK.

Smad7 [3] = assay: Western blot of Smad7 expression in UUO kidneys; type: in vivo, rat; details: UUO rats, GQ-5 40 mg/kg daily i.p. right after UUO, sacrificed day 14
Method: as §1, §2, §3
UUO was performed using an established protocol as described. GQ-5 was dissolved in 5% propylene glycol. Rats were administrated with GQ-5 as described before. All the rats were sacrificed 14 days after UUO. Western blot analyses were performed to examine the Smad4, Smad7 expression and p38, PI3K, ERK phosphorylation.

PI3K = assay: Western blot of TGF-β1-induced PI3K phosphorylation in vitro; type: cell-based, rat; details: NRK52E and NRK49F cells, GQ-5 2.5 nM pre-treated 1 h, TGF-β1 10 ng/ml 1 h
Method: as §4, §5, §6, §7, §8

Smad2 phosphorylation [4] = assay: Smad2 phosphorylation in kidney tissue of UUO rats (immunohistochemistry, Western blot); type: in vivo, rat; details: GQ-5 40 mg/kg daily i.p. right after or 7 days after UUO, sacrificed day 14
Method: (§9) Male Sprague-Dawley rats with body weight 200 to 250 g were randomized into 4 groups (n=6 in each group): (1) sham operated rats; (2) UUO rats; (3) UUO+GQ-5 d1 rats; (4) UUO+GQ-5 d7 rats.
as §2
(§10) (3) UUO+GQ-5 d1 rats: daily intraperitoneal injection of GQ-5 (40 mg/kg body weight) right after UUO;
(§11) (4) UUO+GQ-5 d7 rats: daily intraperitoneal injection of GQ-5 (40 mg/kg body weight) 7 days after UUO.
(§12) UUO was performed using an established protocol as described. GQ-5 was dissolved in 5% propylene glycol. Rats were administrated with GQ-5 as described before. All the rats were sacrificed 14 days after UUO. Immunohistochemical staining and Western blot analyses were performed to examine the Smad3 and Smad2 phosphorylation in kidney tissue.

Smad4 = assay: Western blot of Smad4 expression in vitro; type: cell-based, rat; details: NRK52E and NRK49F cells, GQ-5 2.5 nM pre-treated 1 h, TGF-β1 10 ng/ml 1 h
Method: as §4, §5, §6, §7, §8

Smad2 phosphorylation [5] = assay: Western blot of TGF-β1-induced Smad2 phosphorylation in vitro; type: cell-based, rat
Method: NRK52E and NRK49F cells were cultured in DMEM-Ham's medium supplemented with 10% fetal bovine serum. The cells reached at approximately 50% confluence were used for in vitro experiments. Cells were serum-starved for 12 h, and randomized into 6 groups: (1) Controls; (2) GQ-5 only; (3) TGF-β1 only; (4) TGF-β1+GQ-5 0.1 μM; (5) TGF-β1+GQ-5 0.5 μM; (6) TGF-β1+GQ-5 2.5 μM.
as §5, §6
(4) TGF-β1+GQ-5 0.1 μM: pre-treated with GQ-5 (0.1 μM) for 1 h, followed with TGF-β1 (10 ng/ml) for 1 h
(5) TGF-β1+GQ-5 0.5 μM: pre-treated with GQ-5 (0.5 μM) for 1 h, followed with TGF-β1 (10 ng/ml) for 1 h
(6) TGF-β1+GQ-5 2.5 μM: pre-treated with GQ-5 (2.5 μM) for 1 h, followed with TGF-β1 (10 ng/ml) for 1 h.
GQ-5 was dissolved in DMSO. Cells were treated as described. Cell lysates were immunoblotted with antibodies against phospho-Smad3, Smad3, phospho-Smad2, Smad2.
NRK52E cells were cultured in DMEM-Ham's medium supplemented with 10% fetal bovine serum. The cells reached at approximately 50% confluence were used for in vitro experiments. Cells were serum-starved for 12 h, and randomized into 8 groups: (1) Controls; (2) GQ-5 only; (3) TGF-β1 0.5 h; (4) TGF-β1 0.5 h+GQ-5; (5) TGF-β1 1.0 h; (6) TGF-β1 1.0 h+GQ-5; (7) TGF-β1 3.0 h; (8) TGF-β1 3.0 h+GQ-5; […]

ERK = assay: Western blot of TGF-β1-induced ERK phosphorylation in vitro; type: cell-based, rat; details: NRK52E and NRK49F cells, GQ-5 2.5 nM pre-treated 1 h, TGF-β1 10 ng/ml 1 h
Method: as §4, §5, §6, §7, §8

Smad3 phosphorylation = Smad3 phosphorylation in kidney tissue of UUO rats (immunohistochemistry, Western blot); type: in vivo, rat; details: GQ-5 40 mg/kg daily i.p. right after or 7 days after UUO, sacrificed day 14
Method: as §9, §2, §10, §11, §12

Sequence of interaction of Smad2 with TβRI (O70436 whole entry): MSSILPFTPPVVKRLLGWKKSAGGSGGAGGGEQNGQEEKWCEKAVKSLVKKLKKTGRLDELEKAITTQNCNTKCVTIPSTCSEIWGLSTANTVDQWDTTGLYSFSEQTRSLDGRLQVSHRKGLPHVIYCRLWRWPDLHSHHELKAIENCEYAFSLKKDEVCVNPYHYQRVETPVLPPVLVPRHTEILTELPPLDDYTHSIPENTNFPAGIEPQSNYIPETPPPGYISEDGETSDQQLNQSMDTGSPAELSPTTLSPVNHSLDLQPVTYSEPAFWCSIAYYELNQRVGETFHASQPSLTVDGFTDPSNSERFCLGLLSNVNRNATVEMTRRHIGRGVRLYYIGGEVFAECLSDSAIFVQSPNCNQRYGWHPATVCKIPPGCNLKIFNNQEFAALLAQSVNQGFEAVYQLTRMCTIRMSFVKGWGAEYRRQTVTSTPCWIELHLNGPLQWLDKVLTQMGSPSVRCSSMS

SMILES: CCCCCC/C=C\CCCCCCCc1cccc(O)c1O [GQ-5, 3-[(Z)-pentadec-8-enyl]catechol]
- interaction of Smad2 with TβRI [1]: did not affect
- protein expression of Smad7 (Smad7 [2]): did not affect
- expression of Smad7 (Smad7 [3]): did not affect
- TGF-β1-induced phosphorylation of PI3K (PI3K): did not affect
- Smad2 phosphorylation in renal tissue (Smad2 phosphorylation [4]): not Smad2
- protein expression of Smad4 (Smad4): did not affect
- TGF-β1-induced Smad2 phosphorylation (Smad2 phosphorylation [5]; NRK52E and NRK49F cells, GQ-5 0.1, 0.5, 2.5 μM pre-treated 1 h, TGF-β1 10 ng/ml 1 h): did not affect
- TGF-β1-induced Smad2 phosphorylation, time course (Smad2 phosphorylation [5]; NRK52E cells, GQ-5 2.5 μM pre-treated 1 h, TGF-β1 10 ng/ml 0.5, 1.0, 3.0 h): did not affect
- TGF-β1-induced phosphorylation of ERK (ERK): did not affect
- Smad3 phosphorylation in renal tissue (Smad3 phosphorylation): significantly inhibited
